{"source": "patent US20240189279A1", "about": "“IMMUNOMODULATORY COMPOSITIONS AND METHODS OF USE THEREOF” (THE TEXAS A&M UNIVERSITY SYSTEM, priority 2022, published 2024)", "key": {"AMPK": {"system": "AMPK", "test": "AMPK Western blot in RAW 264.7 macrophages stimulated with palmitate and LPS", "format": "cell-based, murine", "details": "RAW 264.7, 1 mM I3A pre-treatment"}, "[1]": {"system": "Western diet (WD) fed mice", "test": "Western diet mouse model of diet-induced fatty liver disease: serum ALT, liver TG, histology, body weight", "format": "in vivo, mice (male B6 129SF1/J)", "description": "Study design. The overall objective of the study was to investigate if […] can alleviate diet induced liver steatosis and inflammation in vivo. These NAFLD features were induced in mice by feeding the animals a WD and SW for 8 weeks. The drinking water for these mice was then supplemented with low and high doses of […], while continuing the WD for another 8 weeks. The phenotypic changes were assessed by measuring body weight gain, serum ALT, hepatic inflammatory cytokines, and histopathological examination of liver tissue. To investigate potential mechanisms of action, a series of omics analyses were performed on fecal material (metagenomics and metabolomics) and liver tissue (metabolomics and proteomics). To determine cell-type specific signaling mediating […] effects in macrophages, an in vitro cell culture model was used. The histopathological scoring of liver sections was blinded; all other analyses were not blinded. Sample processing and statistical analysis were performed concurrently on treatment and control groups using identical methods. Animal experiments. Male B6 129SF1/J mice at 6 weeks of age were obtained from Jackson Laboratories (Bar Harbor, ME). Mice were acclimatized to the animal facility for one week. At the start of the experiment, mice were randomly divided into four groups (n=10 for each group). Three of the four groups were fed ad libitum a Western diet (WD) with 40% Kcal from fat and containing 0.15% cholesterol (D12079B, Research Diets) and a sugar water (SW) solution (23.1 g/L d-fructose+18.9 g/L d-glucose) as previously described (DIAMOND model (15)). After 8 weeks, the three groups of WD-fed mice were randomly selected for treatment with vehicle (WD group) or low (WD-50 group) or high dose (WD-100 group) of […]. The WD group was fed WD and drank sugar water. The WD-50 and WD-100 groups were fed WD and drank sugar water containing, respectively, 50 or 100 mg […] per kg body weight. The treatments were continued for another 8 weeks. Water bottles containing SW and […] or only SW were changed every other day. A fourth group of mice was fed a low-fat control diet (D12450B, Research Diets) and normal water for 16 weeks (CN group) (FIG. 9A). FIG. 9A presents the study design. Mice belonging to the same treatment group were housed together (5 mice/cage). Mice were maintained on 12:12-h light-dark cycles. All procedures were performed in accordance with Texas A&M University Health Sciences Center Institutional Animal Care and Use Committee guidelines under an approved animal use protocol (AUP #2017-0145). Sample collection. Fecal pellets were collected every other week prior to […] treatment, right before […] treatment, every week during […] treatment, and on the last day of the experiments (FIG. 9B). FIG. 9B presents the sampling scheme. All fecal pellets were flash frozen in liquid nitrogen after collection. Blood samples from the submandibular vein were taken right prior to […] treatment, every other week during […] treatment and on the last day of the experiments. The blood samples were centrifuged at 4,000 g for 15 min at 4° C. to obtain serum. At the end of the experiment, the mice were sacrificed by euthanasia. The liver was quickly excised and rinsed with 10× volume of ice-cold PBS. The right medium lobe of the liver was fixed in 10% neutral formalin for histological analysis. A small piece from right lateral lobe was stored in RNAlater (Sigma Aldrich, St. Louis, MO) using the manufacturer's protocol. The remaining liver tissue samples were flash frozen in liquid nitrogen, homogenized in HPLC-grade water, lyophilized to a dry powder, and stored at -80° C. until further processing. Histological analysis. Formalin fixed liver were embedded in paraffin, sectioned (5 μm) and stained with hematoxylin and eosin (H&E) through VWR histological services (Radnor, PA). Liver histology sections were evaluated by an expert pathologist at Texas A&M University who was blinded to the treatment conditions. […]"}, "[2]": {"system": "fatty acid metabolism enzymes in liver", "test": "Liver targeted proteomics of fatty acid metabolism and antioxidant enzymes in WD mice", "format": "in vivo, mice (male B6 129SF1/J)", "description": "Animal experiments. Male B6 129SF1/J mice at 6 weeks of age were obtained from Jackson Laboratories (Bar Harbor, ME). Mice were acclimatized to the animal facility for one week. At the start of the experiment, mice were randomly divided into four groups (n=10 for each group). Three of the four groups were fed ad libitum a Western diet (WD) with 40% Kcal from fat and containing 0.15% cholesterol (D12079B, Research Diets) and a sugar water (SW) solution (23.1 g/L d-fructose+18.9 g/L d-glucose) as previously described (DIAMOND model (15)). After 8 weeks, the three groups of WD-fed mice were randomly selected for treatment with vehicle (WD group) or low (WD-50 group) or high dose (WD-100 group) of […]. The WD group was fed WD and drank sugar water. The WD-50 and WD-100 groups were fed WD and drank sugar water containing, respectively, 50 or 100 mg […] per kg body weight. The treatments were continued for another 8 weeks. Water bottles containing SW and […] or only SW were changed every other day. A fourth group of mice was fed a low-fat control diet (D12450B, Research Diets) and normal water for 16 weeks (CN group) (FIG. 9A). FIG. 9A presents the study design. Mice belonging to the same treatment group were housed together (5 mice/cage). Mice were maintained on 12:12-h light-dark cycles. All procedures were performed in accordance with Texas A&M University Health Sciences Center Institutional Animal Care and Use Committee guidelines under an approved animal use protocol (AUP #2017-0145). Targeted proteomics. A panel of 15 proteins having differential abundance in the untargeted proteomics data were selected for targeted measurements using product ion scans for representative peptides (Table 7). The relative abundance of a target protein was determined by quantifying the corresponding peptide peak's AUCs in MultiQuant and normalizing the value by the sample protein weight."}, "liver proteome": {"system": "liver proteome", "test": "Liver untargeted proteomics in WD mice", "format": "in vivo, mice (male B6 129SF1/J)"}, "[3]": {"details": "week 16, dose-dependent, WD-50 and WD-100 vs WD"}}, "note": "Entries after “also recorded” stand apart in the source; their conditions may differ.", "data": [{"smiles": "O=C([O-])Cc1c[nH]c2ccccc12.[Na+]", "note": "[I3A, Indole-3-acetate sodium salt]", "values": [{"measurement": "p-AMPK level", "setting": "AMPK", "value": "upregulated p-AMPK to baseline levels"}, {"measurement": "total AMPK level", "setting": "AMPK", "value": "without altering total AMPK"}, {"measurement": "protection against steatosis and immune cell infiltration in livers", "setting": "[1]; I3A up to 100 mg/kg body wt. in drinking water, 16 weeks WD, B6/129 mice", "value": "dose-dependently protected against these injuries"}, {"measurement": "serum alanine aminotransferase (ALT) levels", "setting": "[1]; high dose I3A (WD-100, 100 mg/kg in drinking water) vs WD, week 10 and beyond", "value": "significantly reduced serum ALT levels"}, {"measurement": "body weight increase", "setting": "[1]; normalized to week 8 body weight, I3A treated vs WD", "value": "slowed the weight increase"}, {"measurement": "liver TG", "setting": "[1]; week 16, WD-50 and WD-100 vs WD", "value": "reduced liver TG in a dose-dependent manner"}, {"measurement": "hepatocyte ballooning (H&E histology score)", "setting": "[1]; [3]", "value": "improved"}, {"measurement": "liver steatosis (H&E histology score)", "setting": "[1]; [3]", "value": "improved"}, {"measurement": "lobular inflammation (H&E histology score)", "setting": "[1]; [3]", "value": "improved"}, {"measurement": "decrease of Fasn in liver", "setting": "[2]; I3A treated vs WD", "value": 86, "unit": "%"}, {"measurement": "abundance of antioxidant enzymes catalase (CatB) and glutathione peroxidase 1 (Gpx1) in liver", "setting": "[2]; I3A treatment, WD-50 and WD-100", "value": "dose-dependent decrease"}, {"measurement": "abundance of acetyl-CoA carboxylase-2 (Acab) in liver", "setting": "[2]; WD-100 group vs WD", "value": "not significantly different"}, {"measurement": "abundance of fatty acid synthase (Fasn) in liver", "setting": "[2]; WD-100 group vs WD", "value": "decreased in the WD-100 group compared to the WD group"}, {"measurement": "abundance of mitochondrial β-oxidation enzymes Acadl, Acadm, Acads and Hadh in liver", "setting": "[2]; WD-100 group vs WD", "value": "significantly decreased in the WD-100 group compared to WD"}, {"measurement": "abundance of peroxisomal β-oxidation enzymes Acox1, Acaala and Acaalb in liver", "setting": "[2]; WD-100 group vs WD", "value": "A similar trend was observed"}, {"measurement": "abundance of CD36 in liver", "setting": "[2]; WD-100 group vs WD, sodium salt", "value": "did not affect CD36 abundance; also recorded: decreased, but not significantly"}, {"measurement": "liver protein abundance profile (PLS-DA)", "setting": "liver proteome; WD-50 group vs WD", "value": "not significantly different from the WD group"}, {"measurement": "liver protein abundance profile (PLS-DA)", "setting": "liver proteome; WD-100 group vs WD, p<0.001", "value": "significantly different from the WD group"}]}]}
